Reference: ChEMBL document CHEMBL1135282, “Novel potent antagonists of human neuropeptide Y Y5 receptor. Part 1: 2-oxobenzothiazolin-3-acetic acid derivatives” (Bioorg Med Chem Lett, 2002)

Key:
[1] = molecular target: T1, Neuropeptide Y receptor type 5 (Homo sapiens) (UniProt Q15761); test: Tested for the inhibition of [125I]PYY binding to HEK 293 cells stably expressed with human neuropeptide NPY Y5 receptor at a concentration of 10e-7 M; format: cell-based; conditions: HEK293
T1 sequence (whole entry): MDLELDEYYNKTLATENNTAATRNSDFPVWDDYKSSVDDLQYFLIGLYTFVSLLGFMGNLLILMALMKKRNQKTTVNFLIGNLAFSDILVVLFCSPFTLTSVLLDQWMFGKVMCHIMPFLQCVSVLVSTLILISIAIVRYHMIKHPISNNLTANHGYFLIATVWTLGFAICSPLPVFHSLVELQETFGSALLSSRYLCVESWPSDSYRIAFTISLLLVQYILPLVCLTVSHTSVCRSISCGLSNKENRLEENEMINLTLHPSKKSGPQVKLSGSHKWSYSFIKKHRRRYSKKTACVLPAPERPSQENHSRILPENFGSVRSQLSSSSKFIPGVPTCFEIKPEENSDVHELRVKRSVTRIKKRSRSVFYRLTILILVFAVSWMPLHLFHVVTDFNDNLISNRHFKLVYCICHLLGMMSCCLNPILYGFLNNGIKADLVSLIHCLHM

[2] = molecular target: T1, Neuropeptide Y receptor type 5 (Homo sapiens); test: Tested for the inhibition of [125I]PYY binding to HEK 293 cells stably expressed with human neuropeptide NPY Y5 receptor at a concentration of 10e-8 M; format: cell-based; conditions: HEK293
[3] = molecular target: T1, Neuropeptide Y receptor type 5 (Homo sapiens); test: Tested for the inhibition of [125I]PYY binding to HEK 293 cells stably expressed with human neuropeptide NPY Y5 receptor at a concentration of 10e-9 M; format: cell-based; conditions: HEK293
[4] = molecular target: T2, Neuropeptide Y receptor type 5 (Homo sapiens, UniProt Q15761); test: Inhibitory concentration of total specific binding of [125I]- -PYY to HEK 293 cells transfected with Human NPY-Y5 cDNA (compound prepared by manual synthesis technique); format: cell-based, HEK293
T2 sequence (Q15761 whole entry): T1 sequence (whole entry)

[5] = molecular target: T2, Neuropeptide Y receptor type 5; test: Inhibitory concentration of total specific binding of [125I]- -PYY to HEK 293 cells transfected with the Human NPY-Y5 cDNA (compound prepared by parallel synthesis technique); format: cell-based, HEK293
[6] = molecular target: T1, Neuropeptide Y receptor type 5 (Homo sapiens); test: (§1) Tested for the inhibition of [125I]PYY binding to HEK 293 cells stably expressed with human neuropeptide NPY Y5 receptor at a concentration of 10e-6 M; format: cell-based; conditions: HEK293
[7] = Plasma concentration after oral administration of 100 mg/kg to rats; format: ADME, organism-based; design: dose 100 mg/kg, route oral; conditions: rat
[8] = molecular target: T2, Neuropeptide Y receptor type 5; test: as §1; format: cell-based, HEK293
[9] = molecular target: T2, Neuropeptide Y receptor type 5; test: Tested for the inhibition of [125I]PYY binding to HEK 293 cells stably expressed with human neuropeptide NPY Y5 receptor; format: cell-based, HEK293

Structure (SMILES)	inhibition [1]	inhibition [2]	inhibition [3]	IC50 [4]	IC50 [5]	inhibition [6]	Cmax [7]	IC50 [8]	IC50 [9]
COc1ccc(NC(=O)C2CCN(C(=O)Cn3c(=O)sc4ccc(Cl)cc43)CC2)cn1	88.5%	70.3%	29.9%	2.3 nM	2.6 nM	94%	–	–	–
COCCNC(=O)C1CCN(C(=O)Cn2c(=O)sc3ccc(Cl)cc32)CC1	14.5%	–	–	–	–	–	–	–	–
Cc1ccc2nc(NC(=O)C3CCN(C(=O)Cn4c(=O)sc5ccc(Cl)cc54)CC3)sc2c1	86.6%	68.1%	31.9%	10 nM	2.8 nM	107%	–	–	–
O=C(NCCOS(=O)(=O)O)C1CCN(C(=O)Cn2c(=O)sc3ccc(Cl)cc32)CC1	–	–	–	–	–	19.9%	–	–	–
CC(=O)c1cccc(NC(=O)C2CCN(C(=O)Cn3c(=O)sc4ccc(Cl)cc43)CC2)c1	98.5%	76.8%	41.5%	0.59 nM	2 nM	100%	–	–	–
O=C(Nc1ccc(CCO)cc1)C1CCN(C(=O)Cn2c(=O)sc3ccc(Cl)cc32)CC1	101%	74.6%	28.7%	1.7 nM	2.9 nM	84.7%	–	–	–
O=C(Nc1nc2cc(Cl)ccc2o1)C1CCN(C(=O)Cn2c(=O)sc3ccc(Cl)cc32)CC1	102%	68.4%	16.5%	3.8 nM	4.7 nM	86.2%	–	–	–
CN(CCc1ccccn1)C(=O)C1CCN(C(=O)Cn2c(=O)sc3ccc(Cl)cc32)CC1	-3.9%	–	–	–	–	87.9%	–	–	–
O=C(Cn1c(=O)sc2ccc(Cl)cc21)N1CCC(C(=O)N2CCc3ccccc3C2)CC1	15.6%	–	–	–	–	77.2%	–	–	–
Cc1cc(O)ccc1NC(=O)C1CCN(C(=O)Cn2c(=O)sc3ccc(Cl)cc32)CC1	91.4%	41.1%	5.6%	4.7 nM	1.4 nM	95%	–	–	–
O=C(c1ccccc1)c1cccc(NC(=O)C2CCN(C(=O)Cn3c(=O)sc4ccc(Cl)cc43)CC2)c1	101%	80.5%	45.3%	0.89 nM	1.4 nM	102%	–	–	–
O=C(Cn1c(=O)sc2ccc(Cl)cc21)N1CCC(C(=O)N2CCCc3ccccc32)CC1	59.8%	-3.5%	-4.5%	–	–	51.4%	–	–	–
O=C(Cn1c(=O)sc2ccc(Cl)cc21)N1CCC(C(=O)N2CCc3ccccc32)CC1	–	43.1%	–	–	–	43.1%	–	–	–
O=C(Nc1ccc(Oc2ccccc2)cc1)C1CCN(C(=O)Cn2c(=O)sc3ccc(Cl)cc32)CC1	99.4%	94.5%	53.2%	1.5 nM	0.85 nM	97.2%	–	–	–
Cc1cccc(O)c1NC(=O)C1CCN(C(=O)Cn2c(=O)sc3ccc(Cl)cc32)CC1	67.8%	-5.3%	–	–	–	88.8%	–	–	–
CCCCCCCCCCNC(=O)C1CCN(C(=O)Cn2c(=O)sc3ccc(Cl)cc32)CC1	106%	89.6%	–	1.3 nM	2.6 nM	–	–	–	–
Cc1cccc(C(O)CNC(=O)C2CCN(C(=O)Cn3c(=O)sc4ccc(Cl)cc43)CC2)n1 (stereo unspecified) [FR-235208]	–	–	–	–	–	–	15700 ng/mL	3.3 nM	–
O=C(Nc1ccccc1)C1CCN(C(=O)Cn2c(=O)sc3ccc(Cl)cc32)CC1 [FR-235656]	–	–	–	–	–	–	–	–	4.4 nM
COc1ccc(CNC(=O)C2CCN(C(=O)Cn3c(=O)sc4ccc(Cl)cc43)CC2)cc1	105%	61.6%	11.5%	2.3 nM	1.4 nM	98%	–	–	–
NS(=O)(=O)c1ccc(CCNC(=O)C2CCN(C(=O)Cn3c(=O)sc4ccc(Cl)cc43)CC2)cc1	88.8%	44.7%	19.5%	6.1 nM	9 nM	102%	–	–	–
O=C(Nc1cccc2ccccc12)C1CCN(C(=O)Cn2c(=O)sc3ccc(Cl)cc32)CC1	99%	83.4%	49.3%	17 nM	0.71 nM	108%	–	–	–
O=C(NCC(O)c1ccccc1)C1CCN(C(=O)Cn2c(=O)sc3ccc(Cl)cc32)CC1 (stereo unspecified)	97.1%	79.4%	47.8%	1.2 nM	1.1 nM	108%	–	–	–
O=C(Nc1ccc(Cl)c2ccccc12)C1CCN(C(=O)Cn2c(=O)sc3ccc(Cl)cc32)CC1 [FR-236478]	–	–	–	–	–	–	–	–	0.23 nM
O=C(Nc1ccc(F)c(C(F)(F)F)c1)C1CCN(C(=O)Cn2c(=O)sc3ccc(Cl)cc32)CC1	97.7%	93.2%	52.6%	0.59 nM	0.7 nM	104%	–	–	–
